The text below walks through data of paper PMC10218941, “Design, Synthesis, Antiproliferative Actions, and DFT Studies of New Bis–Pyrazoline Derivatives as Dual EGFR/BRAF^V600E Inhibitors” (International Journal of Molecular Sciences, 2023).

Series [1] in a line: Cell viability assay (MTT) on normal mammary epithelial cells. Conditions: human, MCF-10A normal mammary gland epithelial cells, MCF-10A cells, four days. In kind it is cell-based. The method, then: To test the viability of new substances, the epithelial (MCF-10A) cell line of the normal human mammary gland was used. Compounds 8–17 were incubated for four days on MCF-10A cells before being tested for viability using the MTT assay. According to Table 1, none of the substances tested were cytotoxic, and cell viability at 50 µM was greater than 87% for the compounds tested.
The normal human mammary gland epithelial (MCF-10A) cell line was used to test the viability of new compounds [46, 47]. See Appendix SA (Supplementary File).
(§1) 4.2. Biological evaluation
4.2.1. Cytotoxic activity using MTT Assay and evaluation of IC50
MTT assay was performed to investigate the effect of the synthesized compounds on mammary epithelial cells (MCF-10A). The cells were propagated in medium consisting of Ham's F-12 medium/ Dulbecco's modified Eagle's medium (DMEM) (1:1) supplemented with 10% foetal calf serum, 2 mM glutamine, insulin (10 μg/mL), hydrocortisone (500 ng/mL) and epidermal growth factor (20 ng/mL). Trypsin ethylenediamine tetra acetic acid (EDTA) was used to passage the cells after every 2-3 days. 96-well flat-bottomed cell culture plates were used to seed the cells at a […]
of 10^4 cells mL-1. The medium was aspirated from all the wells of culture plates after 24 h followed by the addition of synthesized compounds (in 200 μL medium to yield a final concentration of 0.1% (v/v) dimethyl sulfoxide) into individual wells of the plates. Four wells were designated to a single compound. The plates were allowed to incubate at 37°C for 96 h. Afterwards, the medium was aspirated and 3 -[4,5-dimethylthiazol-2-yl]-2,5-diphenyltetrazolium bromide (MTT) (0.4 mg/mL) in medium was added to each well and subsequent ly incubated for 3 h. The medium was aspirated and 150 μL dimethyl sulfoxide (DMSO) was added to each well. The plates were vortexed followed by the measurement of absorbance at 540 nm on a microplate reader. […]

For series [2], the system named is A-549 (lung cancer cell line). As to the kind of experiment: Antiproliferative assay (MTT), A-549. Conditions: Homo sapiens, A549; read-out: Antiproliferative Activity IC50 ± SEM (µM) A-549. In kind it is cell-based. As for the experimental part:
(§2) The antiproliferative activity of pyrazoline hybrids 8–17 was tested against the four human cancer cell lines Panc-1 (pancreatic cancer cell line), MCF-7 (breast cancer cell line), HT-29 (colon cancer cell line), and A-549 (lung cancer cell line) using the MTT assay and doxorubicin as the reference drug. See Appendix SA (Supplementary File).
as §1
(§3) 4.2.1. Cytotoxic activity using MTT Assay and evaluation of IC50 […]
(§4) 96-well flat-bottomed cell culture plates were used to seed the cells at a […]
(§5) of 10^4 cells mL-1. The medium was aspirated from all the wells of culture plates after 24 h followed by the addition of synthesized compounds (in 200 μL medium to yield a final concentration of 0.1% (v/v) dimethyl sulfoxide) into individual wells of the plates. Four wells were designated to a single compound. The plates were allowed to incubate at 37°C for 96 h. Afterwards, the medium was aspirated and 3 -[4,5-dimethylthiazol-2-yl]-2,5-diphenyltetrazolium bromide (MTT) (0.4 mg/mL) in medium was added to each well and subsequent ly incubated for 3 h. The medium was aspirated and 150 μL dimethyl sulfoxide (DMSO) was added to each well. The plates were vortexed followed by the measurement of absorbance at 540 nm on a microplate reader. The results were presented as inhibition (%) of proliferation in contrast to controls comprising 0.1% 4.2.1.2. Assay for antiproliferative effect
(§6) To explore the antiproliferative potential of compounds propidium iodide fluorescence assay was performed using different cell lines such as Panc -1 (pancreas cancer cell line), MCF-7 (breast cancer cell line), HT-29 (colon cancer cell line) and A-549 (epithelial cancer cell line), respectively. To calculate the total nuclear DNA, a fluorescent dye (propidium iodide, PI) is used which can attach to the DNA, thus offering a quick and precise technique. PI cannot pass through the cell membrane and its signal intensity can be considered as directly proportional to quantity of cellular DNA. Cells whose cell membranes are damaged or have changed permeability are counted as dead ones. The assay was performed by seeding the cells of different cell lines at a density of 3000-7500 cells/well (in200μl medium) in culture plates followed by incubation for 24h at 37 °C in humidified 5%CO2/95% air atmospheric conditions. The medium was removed; the compounds were added to the plates at 10 μM concentrations (in 0.1% DMSO) in triplicates, followed by incubation for 48h. DMSO (0.1%) was used as control. After incubation, medium was removed followed by the addition of PI (25 μl, 50μg/mL in water/medium) to each well of the plates. At - 80 °C, the plates were allowed to freeze for 24 h, followed by thawing at 25 °C. A fluorometer (Polar-Star BMG Tech) was used to record the readings at excitation and emission wavelengths of 530 and 620 nm for each well. The percentage cytotoxicity of compounds was calculated using […]
(§7) Where ATC= Absorbance of treated cells and AC= Absorbance of control. Erlotinib was used as positive control in the assay. […]

Series [3] concerns MCF-7 (breast cancer cell line). Kind of series: Antiproliferative assay (MTT), MCF-7. In kind it is cell-based. Conditions: Homo sapiens, MCF7; read-out: Antiproliferative Activity IC50 ± SEM (µM) MCF-7. As for the experimental part:
as §2, §1, §3, §4, §5, §6, §7

The subject of series [4] is HT-29 (colon cancer cell line). As to the kind of experiment: Antiproliferative assay (MTT), HT-29. In kind it is cell-based. Conditions: Homo sapiens, read-out: Antiproliferative Activity IC50 ± SEM (µM) HT-29. The method, then:
The antiproliferative activity of pyrazoline hybrids 8–17 was tested against the four human cancer cell lines Panc-1 (pancreatic cancer cell line), MCF-7 (breast cancer cell line), HT-29 (colon cancer cell line), and A-549 (lung cancer cell line) using the MTT assay and doxorubicin as the reference drug. See Appendix SA (Supplementary File). […]
4.2.1.2. Assay for antiproliferative effect
as §6, §7

Series [5] has as its system four human cancer cell lines (A-549, MCF-7, Panc-1, HT-29). As to the kind of experiment: Antiproliferative assay, mean of four cancer cell lines (GI50). In kind it is cell-based. Conditions: mean over A-549, MCF-7, Panc-1, HT-29.
Series [6] deals with T1, EGFR (Homo sapiens, UniProt P00533).
T1 construct: 645–1186); His6 (N); made in house; host or cells: Sf-9 insect cells (baculovirus; pBlueBacHis2B / pFASTBacHTc
T1 sequence (P00533 669-1210): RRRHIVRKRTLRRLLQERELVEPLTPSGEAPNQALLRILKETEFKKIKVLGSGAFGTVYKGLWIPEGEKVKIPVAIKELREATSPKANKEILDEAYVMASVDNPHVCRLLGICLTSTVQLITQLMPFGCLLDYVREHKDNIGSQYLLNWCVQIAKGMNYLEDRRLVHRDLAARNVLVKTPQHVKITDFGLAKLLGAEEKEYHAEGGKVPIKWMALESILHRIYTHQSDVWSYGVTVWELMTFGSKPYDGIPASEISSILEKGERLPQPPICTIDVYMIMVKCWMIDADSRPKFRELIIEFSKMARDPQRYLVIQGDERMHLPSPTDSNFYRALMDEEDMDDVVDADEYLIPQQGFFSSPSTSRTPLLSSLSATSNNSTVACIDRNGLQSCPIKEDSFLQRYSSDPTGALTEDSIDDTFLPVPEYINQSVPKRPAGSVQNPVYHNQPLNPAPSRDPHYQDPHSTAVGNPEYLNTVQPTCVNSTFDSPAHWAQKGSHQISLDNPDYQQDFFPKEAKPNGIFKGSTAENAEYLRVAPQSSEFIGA
As to the kind of experiment: EGFR inhibitory assay. In kind it is biochemical. Particulars: read-out: EGFR Inhibition IC50 ± SEM. As for the experimental part:
4.2.2. EGFR inhibitory assay
Baculoviral expression vectors including pBlueBacHis2B and pFASTBacHTc were used […]
(1 picture or pasted object on this page, not shown here)
5ʹ upstream to the EGFR sequence comprised a sequence that encoded (His)6. Sf-9 cells were infected for 72h for protein expression. The pellets of Sf-9 cells were solubilized in a buffer containing sodium vanadate (100 μM), aprotinin (10 μg/mL), triton (1%), HEPES […]
centrifugation for 20 min.
Histidine-linked proteins were first eluted with 250 and then […]
enhancement solution was added to each well and the signal was recorded at excitation and […]
The autophosphorylation percentage inhibition by compounds was calculated using the following equation: […]

The target of series [7] is BRAF^V600E. Kind of series: BRAF^V600E inhibitory assay.
Sequence of BRAF^V600E (P28028 whole entry V585E): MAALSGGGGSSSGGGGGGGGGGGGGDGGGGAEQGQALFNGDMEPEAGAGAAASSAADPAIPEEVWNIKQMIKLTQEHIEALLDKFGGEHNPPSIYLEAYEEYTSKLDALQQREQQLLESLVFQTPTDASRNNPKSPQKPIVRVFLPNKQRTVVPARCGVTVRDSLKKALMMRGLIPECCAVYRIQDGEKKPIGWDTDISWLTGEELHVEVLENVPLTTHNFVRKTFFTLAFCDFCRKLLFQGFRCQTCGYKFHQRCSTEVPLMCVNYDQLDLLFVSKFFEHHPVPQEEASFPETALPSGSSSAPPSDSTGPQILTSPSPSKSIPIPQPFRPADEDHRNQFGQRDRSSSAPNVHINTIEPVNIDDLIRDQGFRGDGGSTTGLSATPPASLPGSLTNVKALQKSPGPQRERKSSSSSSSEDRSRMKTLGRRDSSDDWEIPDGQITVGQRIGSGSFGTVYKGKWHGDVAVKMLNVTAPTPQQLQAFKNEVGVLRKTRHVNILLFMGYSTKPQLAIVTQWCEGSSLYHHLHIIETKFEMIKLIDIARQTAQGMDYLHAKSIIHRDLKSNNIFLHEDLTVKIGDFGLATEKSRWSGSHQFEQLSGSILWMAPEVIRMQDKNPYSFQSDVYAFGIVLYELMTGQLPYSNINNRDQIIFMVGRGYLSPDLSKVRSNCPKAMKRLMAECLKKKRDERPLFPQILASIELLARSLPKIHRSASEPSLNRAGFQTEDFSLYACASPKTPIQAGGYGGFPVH
Procedure: V600E mutant BRAF kinase assay was performed to investigate the activity of tested compounds against BRAF. Mouse full-length GST-tagged BRAFV600E (7.5 ng, Invitrogen, PV3849) was pre-incubated with drug (1 µL) and assay dilution buffer (4 µL) for 60 min at 25 °C. In assay dilution buffer, a solution (5 µL) containing MgCl2 (30 mM), ATP (200 µM), recombinant human full length (200 ng) and N-terminal His-tagged MEK1 (Invitrogen) was added to start the assay, subsequent to incubation for 25 min at 25 °C. The assay was stopped using 5X protein denaturing buffer (LDS) solution (5 µL). To further denature the protein, heat (70° C) was applied for 5 min.
10 µL of each reaction was loaded into the precast plates and electrophoresis was allowed to proceed. After completion of electrophoresis, the front part of the precast gel plate (holding hot ATP) was cut and afterwards cast-off. The dried gel was developed using a phosphor screen.
served as positive control.

Turning to `COc1ccc(C2CC(c3ccc(NC(=O)COc4ccc(C5=NNC(c6ccc(OC)c(OC)c6)C5)cc4)cc3)=NN2)cc1` (centres unmarked) [Compound 17, 2-(4-(5-(3,4-Dimethoxyphenyl)-4,5-dihydro-1H-pyrazol-3-yl)phenoxy)-N-(4-(5-(4-methoxyphenyl)-4,5-dihydro-1H-pyrazol-3-yl)phenyl)acetamide], the viability (usually the share of living cells, or the viability signal relative to a control) at 96 h, 50 µM in series [1] stood at 91%. Besides, the IC50 (in general, the concentration needed to halve the response being measured) in series [2] is 1.2 ± 0.1 µM; in series [3], 1 ± 0.1 µM; in series [4] it was 1.3 ± 0.1 µM; in series [5], 1200 nM; in series [6] it was 87 ± 6 nM; in series [7], 107 ± 9 nM.

`COc1ccc(C2CC(c3ccc(OCC(=O)Nc4ccc(C5=NNC(c6ccc(OC)c(OC)c6)C5)cc4)cc3)=NN2)cc1` (centres unmarked) [Compound 12, 2-(4-(5-(4-Methoxyphenyl)-4,5-dihydro-1H-pyrazol-3-yl)phenoxy)-N-(4-(5-(3,4-dimethoxyphenyl)-4,5-dihydro-1H-pyrazol-3-yl)phenyl)acetamide]: in series [1], the viability at 96 h, 50 µM was determined as 90%. Also, the IC50 in series [2] stood at 1 ± 0.1 µM; in series [3] it was 0.9 ± 0.1 µM; in series [4] it was 1.2 ± 0.1 µM; in series [5] it was 1050 nM; in series [6], 81 ± 5 nM; in series [7], 93 ± 6 nM.
